We go through five compounds from publication PMC3222737 (Biochemistry, 2011).

Several values for one entry are separate records, joined by “and”; a condition that tells them apart may be missing. Equal entries are not always repeated. Where two headings read alike, the source gives them in different places.

Data set [1] addresses T1, MTAP (Homo sapiens, UniProt Q13126).
T1 sequence (Q13126 1-283): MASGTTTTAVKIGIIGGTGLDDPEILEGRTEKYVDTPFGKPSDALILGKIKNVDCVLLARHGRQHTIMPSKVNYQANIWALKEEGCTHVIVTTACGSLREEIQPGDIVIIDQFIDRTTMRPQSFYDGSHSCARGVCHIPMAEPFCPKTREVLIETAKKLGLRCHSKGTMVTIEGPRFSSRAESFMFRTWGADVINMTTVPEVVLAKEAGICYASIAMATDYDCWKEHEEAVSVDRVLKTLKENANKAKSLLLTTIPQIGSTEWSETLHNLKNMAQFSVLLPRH
Put plainly: Isothermal titration calorimetry of ligand binding to human MTAP. The conditions noted are these: for ΔG: calculated from Ki; for −TΔS: from ΔG=ΔH−TΔS.

The target in data set [2] is T1, MTAP. The conditions noted are these: cited from earlier work; for Ki: human MTAP.
Data set [3] concerns human lung cancer cell lines. The conditions noted are these: mouse xenografts; cited from earlier work.
Data set [4] deals with FaDu. The settings on record: FaDu cells; cited from earlier work.
The test system of data set [5] is Cal27. The settings on record: Cal27 cells; cited from earlier work.
For data set [6] the following is noted: in vivo; cited from earlier work.
For data set [7], the target named is T1, MTAP. The data set can be described thus: Analytical ultracentrifugation sedimentation velocity of MTAP complexes. The conditions noted are these: for S(20,w) (normalized): MTAP 134 μM + inhibitor 400 μM, normalized for mass of bound ligands; for S(20,w) relative change: versus apo MTAP.
Data set [8] has as its system FaDu tumors. The conditions noted are these: mouse model; cited from earlier work.
The mark [9] stands for this setting: second generation inhibitors, single set of identical sites.
Where [10] appears, read: second generation inhibitors, identical sites.
Where [11] appears, read: first generation inhibitors, major binding sites (first two sites).
Setting [12] is: first generation inhibitors, major binding sites.
Where [13] appears, read: first generation inhibitors, third site.

Broadly, the Kd is the equilibrium constant for the complex coming apart. For `Nc1ncnc2[nH]cnc12` [Adenine, reference compound], in data set [1] (Kd, adenine, 1st site, three sequential binding sites model, derived from ITC data fitting), the equilibrium dissociation constant (Kd) came to 3000 ± 1000 nM. Further, the ΔH in data set [1] (adenine, 1st site) is -0.003 ± 0.2 kcal/mol; in data set [1] (adenine, 2nd site) it was 2.4 ± 0.2 kcal/mol; in data set [1] (adenine, 3rd site) it was -2.6 ± 0.8 kcal/mol. The “n (number of sites)” value in data set [1] (adenine, 1st site, sequential model) was 1; in data set [1] (adenine, 2nd site, sequential model), 1; in data set [1] (adenine, 3rd site, sequential model), 1. The ΔG was -7.6 ± 0.2 kcal/mol in data set [1] (adenine, 1st site); -7.7 ± 0.2 kcal/mol in data set [1] (adenine, 2nd site); -5.6 ± 0.5 kcal/mol in data set [1] (adenine, 3rd site). The “−TΔS” value in data set [1] (adenine, 1st site) was -7.6 ± 0.3 kcal/mol; in data set [1] (adenine, 2nd site) it was -10.1 ± 0.3 kcal/mol; in data set [1] (adenine, 3rd site), -3.0 ± 0.9 kcal/mol. For the same compound, the “Entropy (−TΔS) share of the binding energy” value in data set [1] (adenine, third site) is 54%.

In general, Ki refers to a dissociation constant, usually derived from enzyme kinetics or from competition with a known ligand. For `CSC[C@H]1CN(Cc2c[nH]c3c(N)ncnc23)C[C@@H]1O` [MT-DADMe-ImmA], in data set [2] (read-out: Ki (dissociation constant by inhibition kinetics)), the Ki is 0.09 nM. For the same compound, the Kd in data set [2] (setting [9]) was 0.09 ± 0.01 nM. Moreover, in data set [3], the “tumor growth and metastases” value was “inhibits the tumor growth and metastases”. For the same compound, the apoptosis result in data set [4] is listed as “induces apoptosis”. In data set [1] (setting [10]), the ΔH is reported as 1.5 ± 0.1 kcal/mol; the ΔG was -13.7 kcal/mol and -13.7 ± 0.1 kcal/mol; the “−TΔS” value is -15.2 kcal/mol and -15.2 ± 0.1 kcal/mol. The “n (number of sites)” value in data set [1] (setting [9]) is reported as 3. The apoptosis result in data set [5] is on record as “induces apoptosis”. Besides, in data set [6], the systemic toxicity entry is given as “low systemic toxicity”. In data set [7], the “S(20,w) (normalized)” value came out at 5.904 ± 0.016 and the “S(20,w) relative change” value is listed as 0.79 ± 0.05%. Also, the tumor growth entry in data set [8] was “prevents the growth of FaDu tumors”.

Regarding `CSCC1NC(c2c[nH]c3c(N)ncnc23)[C@@H](O)[C@H]1O` (some centres unmarked) [MT-ImmA], the Kd in data set [2] (setting [11]) was 1 ± 0.1 nM. Further, the Ki in data set [2] was 1 nM. Besides, in data set [1] (setting [12]), the “n (number of sites)” value is 2.42 ± 0.04; the ΔH is 0.2 kcal/mol and 0.24 ± 0.04 kcal/mol; the ΔG was -12.3 kcal/mol and -12.3 ± 0.1 kcal/mol; the “−TΔS” value is -12.5 kcal/mol and -12.5 ± 0.1 kcal/mol. Moreover, in data set [1] (setting [13]), the “n (number of sites)” value is reported as 0.58 ± 0.09, the ΔH turned out to be 2.7 ± 0.4 kcal/mol, the ΔG is -8.4 ± 0.3 kcal/mol and the “−TΔS” value is -11.1 ± 0.5 kcal/mol.

`CCCSC[C@H]1N[C@@H](c2c[nH]c3c(N)ncnc23)[C@H](O)[C@@H]1O` [nPrT-ImmA]: the dissociation constant Kd in data set [2] (setting [11]) is 0.214 ± 0.01 nM. Further, in data set [1] (setting [12]), the “n (number of sites)” value is reported as 2.13 ± 0.04; the ΔH was 0.2 kcal/mol and 0.24 ± 0.03 kcal/mol; the ΔG was -13.2 kcal/mol and -13.2 ± 0.03 kcal/mol; the “−TΔS” value is -13.4 kcal/mol and -13.4 ± 0.1 kcal/mol. Further, in data set [1] (setting [13]), the “n (number of sites)” value was found to be 0.9 ± 0.1, the ΔH is recorded as 1.1 ± 0.2 kcal/mol, the ΔG is -8.2 ± 0.4 kcal/mol and the “−TΔS” value is -9.3 ± 0.4 kcal/mol.

In the case of `Nc1ncnc2c(CN3CC(CSc4ccc(Cl)cc4)[C@H](O)C3)c[nH]c12` (some centres unmarked) [p-Cl-PhT-DADMe-ImmA], the Kd in data set [2] (setting [9]) was 0.01 ± 0.005 nM. In data set [1] (setting [10]), the ΔH is 2.6 ± 0.1 kcal/mol; the ΔG is -15.0 kcal/mol and -15.0 ± 0.3 kcal/mol; the “−TΔS” value is -17.6 kcal/mol and -17.6 ± 0.3 kcal/mol. The “n (number of sites)” value in data set [1] (setting [9]) is 3. In data set [7], the “S(20,w) (normalized)” value amounted to 6.012 ± 0.067; the “S(20,w) relative change” value was 2.63% and 2.63 ± 0.12%.
